According to patent US10696660B2, “Rho kinase inhibitors” (priority 2012, dated 2020):
Entries after “also recorded” stand apart in the source; their conditions may differ.

Experiments:
[1] = test system: CD4^+ T cells from RA patients; test: cytokine secretion ex vivo by CD3/CD28 stimulated CD4+ T cells from RA patients; format: cell-based, human; details: listed as KD025
[2] = test system: human CD4^+ T cells; test: proliferation of T cells in response to TCR stimulation in vitro; format: cell-based; details: listed as KD025
[3] = test system: TGF-β-induced STAT3, MLC and SMAD2/3 phosphorylation; test: TGF-β-induced phosphorylation of STAT3, MLC and SMAD2/3 in Tregs; format: cell-based
[4] = test system: PBMCs; test: ex vivo anti-CD3/CD28 stimulated cytokine production in PBMCs isolated from treated patients; design: species or system human; details: 120 mg/day, days 1 and 8-14
[5] = test system: STAT3; test: STAT3 phosphorylation in T cells; format: cell-based, human

## CC(C)NC(=O)COc1cccc(-c2nc(Nc3ccc4[nH]ncc4c3)c3ccccc3n2)c1 [SLx-2119]
[1]
  secretion of IFN-γ: inhibits; also recorded: significantly down-regulated
  secretion of IL-17: inhibits; also recorded: significantly down-regulated
  secretion of IL-21: inhibits; also recorded: significantly down-regulated
[2]
  proliferation in response to TCR stimulation: inhibits; also recorded: down-regulated their ability to proliferate
[3]
  TGF-β-induced STAT3 and MLC phosphorylation: down-regulates
[4]
  induction of IL-17 secretion in PBMCs: significantly inhibited in PBMCs isolated from four of five patients
  induction of IL-21 secretion in PBMCs: significantly inhibited in PBMCs from all five patients
[5]; Th17-skewing conditions 5 days, then treated 3 hours
  STAT3 phosphorylation: STAT3 phosphorylation was reduced
[5]; pre-treatment, then anti-CD3/CD28 stimulation
  phosphorylation of STAT3: reduced phosphorylation of STAT3
[5]; separate experiment (FIG. 9C)
  phosphorylation of STAT3, IFR4 and RORγT: reduced phosphorylation
[5]; two different experimental designs, listed as KD025
  phosphorylation of STAT3: inhibits STAT3 phosphorylation; also recorded: significantly down-regulates
